Data from ChEMBL document CHEMBL1649114, “Effect of concomitant artesunate administration and cytochrome P4502C8 polymorphisms on the pharmacokinetics of amodiaquine in Ghanaian children with uncomplicated malaria” (Antimicrob Agents Chemother, 2008).

Tests used:
Design in all cases: dose 10 mg/kg, route oral
[1] = system: Homo sapiens; assay: Cmax in children with uncomplicated malaria assessed as desethylamodiaquine at 10 mg/kg, po administered as single dose; type: ADME, organism-based; conditions: in vivo
[2] = system: Homo sapiens; assay: Tmax in children with uncomplicated malaria assessed as desethylamodiaquine at 10 mg/kg, po administered as single dose; type: ADME, organism-based; conditions: in vivo
[3] = system: Homo sapiens; assay: AUC in children with uncomplicated malaria assessed as desethylamodiaquine at 10 mg/kg, po administered as single dose; type: ADME, organism-based, Plasma; conditions: in vivo
[4] = system: Plasma; assay: Plasma concentration in children with uncomplicated malaria assessed as desethylamodiaquine at 10 mg/kg, po administered as single dose measured on day 3; type: ADME, organism-based; conditions: human, in vivo
[5] = system: Homo sapiens; assay: Toxicity in children with uncomplicated malaria assessed as neutropenia at 10 mg/kg, po administered as single dose; type: organism-based; conditions: in vivo
[6] = system: Homo sapiens; assay: Toxicity in children with uncomplicated malaria assessed as elevated serum aminotransferase levels at 10 mg/kg, po administered as single dose; type: organism-based; conditions: in vivo
[7] = system: Homo sapiens; assay: Toxicity in children with uncomplicated malaria assessed as bradycardia at 10 mg/kg, po administered as single dose; type: organism-based; conditions: in vivo
[8] = system: Homo sapiens; assay: Toxicity in children with uncomplicated malaria assessed as pruritus at 10 mg/kg, po administered as single dose; type: organism-based; conditions: in vivo
[9] = system: Homo sapiens; assay: Toxicity in children with uncomplicated malaria assessed as excessive sleepiness at 10 mg/kg, po administered as single dose; type: organism-based; conditions: in vivo

| Compound | Cmax [1] | Tmax [2] | AUC [3] | Activity [4] | Activity [5] | Activity [6] | Activity [7] | Activity [8] | Activity [9] |
| --- | --- | --- | --- | --- | --- | --- | --- | --- | --- |
| CCN(CC)Cc1cc(Nc2ccnc3cc(Cl)ccc23)ccc1O.Cl | 1185 ng/mL | 47.9 h | 38516 ng·h/mL |  |  |  |  |  |  |
| CCNCc1cc(Nc2ccnc3cc(Cl)ccc23)ccc1O [DESETHYL AMODIAQUINE] |  |  |  | 156.6 ng/mL | Toxic | Toxic | Toxic | Toxic | Toxic |
